Assay results as given in publication PMC10487436, “Towards Anticancer and Antibacterial Agents: Design and Synthesis of 1,2,3-Triazol-quinobenzothiazine Derivatives” (International Journal of Molecular Sciences, 2023).
≈ marks a conversion by molar mass, not a printed value.

Columns and labels:
[1] = test system: methicillin-resistant S. aureus 63718; test: MBC, agar aliquot subculture method, MRSA3; type: cell-based; details: Staphylococcus aureus
Protocol: (§1) For the above-mentioned strains/isolates, the agar aliquot subculture method was used as a test for bactericidal agents. After the MIC value determination, the inoculum was transferred to CaMH (Oxoid) for staphylococci, BHI (Oxoid) for enterococci, and Middlebrook 7H9 (Difco) for mycobacteria medium using a multipoint inoculator. As indicated above, the plates were incubated on a thermostat at 37 °C for the appropriate time for each micro-organism. The lowest concentration of test compound at which ≤5 colonies were obtained was then evaluated as MBC, corresponding to a 99.9% decrease in CFU relative to the original inoculum.

[2] = test system: vancomycin-resistant E. faecalis VRE 368; test: MBC, agar aliquot subculture method, VRE2; type: cell-based; details: Enterococcus faecalis
Protocol: as §1

[3] = test system: Mycobacterium marinum CAMP 5644; test: MIC, broth dilution micro-method, MM; type: cell-based; details: CAMP5644, 504 h, 21 days at 28 °C
[4] = test system: Mycobacterium smegmatis ATCC 700084; test: MBC, agar aliquot subculture method, MS; type: cell-based; details: Mycolicibacterium smegmatis, ATCC700084
Protocol: as §1

[5] = test system: Enterococcus faecalis ATCC 29213; test: MIC, microtitration broth method, EF; type: cell-based; details: ATCC29213, 24 h at 37 °C
[6] = test system: Mycobacterium marinum CAMP 5644; test: MBC, agar aliquot subculture method, MM; type: cell-based; details: CAMP5644
Protocol: as §1

[7] = test system: Mycobacterium smegmatis ATCC 700084; details: 3 days; for Conc.: lowest multiple of MBC with at least 70% inhibition of respiratory activity / Conc.: lowest multiple of MIC with at least 70% inhibition of respiratory activity: MTT; for M. smegmatis Respiration Inhibition: at the concentration (lowest multiple of MIC with at least 70% inhibition)
[8] = test system: vancomycin-resistant E. faecalis VRE 342B; test: MIC, microtitration broth method, VRE1; type: cell-based; details: Enterococcus faecalis, 24 h at 37 °C
Protocol: (§2) In vitro antibacterial activity of the synthesized compounds was evaluated against representatives of multidrug-resistant bacteria, three clinical isolates of methicillin-resistant S. aureus: clinical isolates of animal origin, MRSA 63718 (Department of Infectious Diseases and Microbiology, Faculty of Veterinary Medicine, University of Veterinary Sciences Brno, Czech Republic), carrying the mecA gene; and MRSA SA 630 and MRSA SA 3202 [52] (National Institute of Public Health, Prague, Czech Republic), both of human origin. […] Vancomycin- and methicillin-susceptible S. aureus ATCC 29213 and vancomycin-susceptible Enterococcus faecalis ATCC 29212, obtained from the American Type Culture Collection, were used as the reference and quality control strains. Three vanA gene-carrying vancomycin-resistant isolates of E. faecalis (VRE 342B, VRE 368, VRE 725B) were provided by Oravcova et al..
(§3) The minimum inhibitory concentrations (MICs) were evaluated by the microtitration broth method according to the CLSI, with some modifications. The compounds were dissolved in DMSO (Sigma, St. Louis, MO, USA) to obtain a concentration of […] and diluted in a microtitration plate in an appropriate medium, i.e., Cation Adjusted Mueller–Hinton Broth (CaMH, Oxoid, Basingstoke, UK) for staphylococci, and Brain Heart Infusion Broth (BHI, Oxoid) for enterococci, to reach the final concentration of 256–0.125 µg/mL. Microtiter plates were inoculated with test micro-organisms so that the final concentration of bacterial cells was 10^5. […] A drug-free control and a sterility control were included. The plates were incubated for 24 h at 37 °C for staphylococci and enterococci. […] The experiments were repeated three times.

[9] = test system: methicillin-resistant S. aureus SA 3202; test: MBC, agar aliquot subculture method, MRSA1; type: cell-based; details: Staphylococcus aureus
Protocol: as §1

[10] = test system: Staphylococcus aureus ATCC 29213; test: MBC, agar aliquot subculture method, SA; type: cell-based; details: ATCC29213
Protocol: as §1

[11] = test system: vancomycin-resistant E. faecalis VRE 368; test: MIC, microtitration broth method, VRE2; type: cell-based; details: Enterococcus faecalis, 24 h at 37 °C
Protocol: as §2, §3

[12] = test system: A549 (human lung carcinoma); test: WST-1 proliferation assay, A549; type: cell-based; details: Homo sapiens, A549, 72 h exposure
Protocol: (§4) Compounds were evaluated for their antiproliferative activity using three cultured cell lines: A549 (human lung carcinoma, ATCC, Manassas, VA, USA), SNB-19 (human glioblastoma, DSMZ, German Collection of Microorganisms and Cell Cultures), T-47D (human breast cancer, ATCC, Manassas, VA, USA), and NHDF (normal human dermal fibroblasts, ATCC, Manassas, VA, USA). The cultured cells were kept at 37 °C and 5% CO2. The cells were seeded (1 × 10^4 cells/well/100 μL DMEM supplemented with 10% FCS, streptomycin, and penicillin) using 96-well plates (corning). Cells were counted in a hemocytometer (Burker chamber) using a phase contrast Olympus IX50 microscope equipped with a Sony SSC-DC58 AP camera and an Olympus DP10 digital camera.
(§5) The antiproliferative effect of the compounds exerted on cancer and normal cells was determined using the Cell Proliferation Reagent WST-1 assay (Roche Molecular Biochemicals, Mannheim, Germany). This assay is based on a colorimetric method using the enzymatic ability of viable cells to cause the bright, red-colored stable tetrazolium monosodium salt [2-(4-iodophenyl)-3-(4-nitrophenyl)-5-(2,4-disulfophenyl)–2H-tetra-zolium] to transform into the dark, red-colored soluble formazan. […] An increase in the amount of formazan dye formed correlated with the number of metabolically active cells in the culture. The formazan dye produced by metabolically active cells was quantified by absorbance readings at appropriate wavelengths. The examined cells were exposed to the tested compounds (1 mM DMSO stock) for 72 h at various concentrations (0.1–100 μM). The control was performed in order to eliminate the DMSO effect at the concentration used. Cell cultures were incubated with WST-1 (10 μL) for 1 h. The absorbance of the samples was measured against a background control at 450 nm using a microplate reader with a reference wavelength at 600 nm. The obtained results are expressed as the means of at least two independent experiments performed in triplicate. The antiproliferative activity of the tested compounds was compared to that of cisplatinum. The values of IC50 (a concentration of a compound that is required for 50% inhibition) were calculated from the dose-response relationship with respect to control. The results were reported as the mean (±std) of three separate experiments.

[13] = test system: methicillin-resistant S. aureus 63718; test: MIC, microtitration broth method, MRSA3; type: cell-based; details: Staphylococcus aureus; 24 h at 37 °C
Protocol: as §2, §3

[14] = test system: methicillin-resistant S. aureus SA 630; test: MIC, microtitration broth method, MRSA2; type: cell-based; details: Staphylococcus aureus; 24 h at 37 °C
Protocol: as §2, §3

[15] = test system: methicillin-resistant S. aureus SA 3202; test: MIC, microtitration broth method, MRSA1; type: cell-based; details: Staphylococcus aureus; 24 h at 37 °C
Protocol: as §2, §3

[16] = test system: vancomycin-resistant E. faecalis VRE 725B; test: MIC, microtitration broth method, VRE3; type: cell-based; details: Enterococcus faecalis, 24 h at 37 °C
Protocol: as §2, §3

[17] = test system: T-47D (human breast cancer); test: WST-1 proliferation assay, T47D; type: cell-based; details: Homo sapiens, T47D, 72 h exposure
Protocol: as §4, §5

[18] = test system: SNB-19 (human glioblastoma); test: WST-1 proliferation assay, SNB-19; type: cell-based; details: Homo sapiens, SNB-19, 72 h exposure
Protocol: as §4, §5

[19] = test system: Mycobacterium smegmatis ATCC 700084; test: MIC, broth dilution micro-method, MS; type: cell-based; details: Mycolicibacterium smegmatis, ATCC700084, 72 h; 3 days at 37 °C
[20] = test system: NHDF (normal human dermal fibroblasts); test: WST-1 proliferation assay, NHDF; type: cell-based; details: Homo sapiens, NHDF, normal cells, 72 h exposure
Protocol: as §4, §5

[21] = test system: Staphylococcus aureus ATCC 29213; test: MIC, microtitration broth method, SA; type: cell-based; details: ATCC29213, 24 h at 37 °C
Protocol: as §2, §3

[22] = test system: methicillin-resistant S. aureus SA 630; test: MBC, agar aliquot subculture method, MRSA2; type: cell-based; details: Staphylococcus aureus
Protocol: as §1

Enterococcus faecalis = test: MBC, agar aliquot subculture method, EF; type: cell-based; details: ATCC29213
Protocol: as §1

[23] = test system: human cancer cell lines (A549, SNB-19, and T-47D); test: WST-1 proliferation assay, cancer cell line panel; type: cell-based; details: SNB-19, A549, T47D, read-out: IC50 range over the tested cancer cell lines
Protocol: as §4
The antiproliferative effect of the compounds exerted on cancer and normal cells was determined using the Cell Proliferation Reagent WST-1 assay (Roche Molecular Biochemicals, Mannheim, Germany). […] The formazan dye produced by metabolically active cells was quantified by absorbance readings at appropriate wavelengths. […] The absorbance of the samples was measured against a background control at 450 nm using a microplate reader with a reference wavelength at 600 nm. The obtained results are expressed as the means of at least two independent experiments performed in triplicate. […]

[24] = test system: methicillin-resistant S. aureus 63718; set-up: method as in PMID 20386717; details: MRSA 63718, characterisation of the isolate; cited from earlier work

Compound | MBC [1] [µM] | MIC [3] [µM] | MBC [4] [µM] | MIC [5] [µM] | MBC [6] [µM] | MIC [8] [µM] | MBC [9] [µM] | MBC [10] [µM] | MIC [11] [µM] | IC50 [12] [µM] | MIC [13] [µM] | MIC [14] [µM] | MIC [15] [µM] | MIC [16] [µM] | IC50 [17] [µM] | IC50 [18] [µM] | MIC [19] [µM] | IC50 [20] [µM] | MIC [21] [µM] | MBC [22] [µM] | other results
C[n+]1cc2c(c3ccccc31)Nc1ccc(OCc3cn(-c4ccc(Cl)cc4)nn3)cc1S2 [2m, 5-Methyl-9-(1-(4-chlorophenyl)-1H-1,2,3-triazol-4-yl)methoxy-12H-quino [3,4-b][1,4]benzothiazinium chloride] | 32.7 | 16.3 | 8.19 | 65.5 | 16.3 | > 524 | 131 | 65.5 | 524 | 16.8 ± 1.2 | 32.7 | 131 | 131 | 524 | 8.9 ± 0.9 | 23.4 ± 1.5 | 8.19 | > 100 | 65.5 | 131 | MBC [2]: 524 µM; Conc.: lowest multiple of MBC with at least 70% inhibition of respiratory activity [7]: 1× MIC (1× MBC); Conc.: lowest multiple of MIC with at least 70% inhibition of respiratory activity [7]: 1× MIC (1× MBC); viability of M. smegmatis at MIC value ([7]; Mycobacterium smegmatis): less than 70%; M. smegmatis Respiration Inhibition [7]: 87.1%
CC1(C)S[C@@H]2[C@H](NC(=O)[C@H](N)c3ccccc3)C(=O)N2[C@H]1C(=O)O [AMP, ampicillin, reference compound] | 45.8 (≈ 16 µg/mL) |  |  | 2.81 (≈ 0.982 µg/mL) |  |  | > 45.8 | 5.72 (≈ 2 µg/mL) |  |  | 45.8 (≈ 16 µg/mL) | > 45.8 | > 45.8 |  |  |  |  |  | 5.72 (≈ 2 µg/mL) | > 45.8 | MBC (Enterococcus faecalis): 2.81 µM (≈ 0.982 µg/mL)
C=CCn1cc(COc2ccc3c(c2)Sc2c[n+](C)c4ccccc4c2N3)nn1 [2a, 5-Methyl-9-(1-allyl-1H-1,2,3-triazol-4-yl)methoxy-12H-quino [3,4-b][1,4]benzothiazinium chloride] | 131 | 65.5 | 32.7 | 262 | 65.5 | 524 |  | 131 | 262 | 0.45 ± 0.08 | 131 | 262 | 262 | 262 | 2.1 ± 0.5 | 0.23 ± 0.06 | 32.7 | 47.8 ± 3.5 | 131 | 262 | IC50 [23]: 0.23 to 2.1 µM
CN[C@H](CC(C)C)C(=O)N[C@H]1C(=O)N[C@@H](CC(N)=O)C(=O)N[C@H]2C(=O)N[C@H]3C(=O)N[C@H](C(=O)N[C@H](C(=O)O)c4cc(O)cc(O)c4-c4cc3ccc4O)[C@H](O)c3ccc(c(Cl)c3)Oc3cc2cc(c3O[C@@H]2O[C@H](CO)[C@@H](O)[C@H](O)[C@H]2O[C@H]2C[C@](C)(N)[C@H](O)[C@H](C)O2)Oc2ccc(cc2Cl)[C@H]1O [vancomycin] |  |  |  |  |  |  |  |  |  |  |  |  |  |  |  |  |  |  |  |  | MIC of vancomycin [24]: 2 µg/mL
C[n+]1cc2c(c3ccccc31)Nc1ccc(OCc3cn(CSc4ccccc4)nn3)cc1S2 [2j, 5-Methyl-9-(1-(phenylthio)methyl-1H-1,2,3-triazol-4-yl)methoxy-12H-quino [3,4-b][1,4]benzothiazinium chloride] | 32.7 | 16.3 | 16.3 | 524 | 16.3 | 524 | 65.5 | 65.5 | 524 | 10.5 ± 0.7 | 32.7 | 65.5 | 65.5 | 524 | 19.3 ± 1.2 | 8.8 ± 0.4 | 16.3 | 28.7 ± 1.2 | 65.5 | 65.5 | Conc.: lowest multiple of MBC with at least 70% inhibition of respiratory activity [7]: 2× MIC (2× MBC); Conc.: lowest multiple of MIC with at least 70% inhibition of respiratory activity [7]: 2× MIC (2× MBC); M. smegmatis Respiration Inhibition [7]: 87.6%
